Experimental data as given in patent US20220008350A1, “PROCESS FOR ENGINEERING TARGETED NANOPARTICLES” (University of North Texas Health Science Center, priority 2018, published 2022).

What was measured:
[1] = target: ATP-dependent drug efflux pump glycoprotein (P-gp) (Homo sapiens, UniProt P08183); settings: cited from earlier work
[2] = test system: integrin αVβ3 surface expression in C4-2B prostate cancer cells; assay: αVβ3 protein stimulation and verification (immunocytochemistry); assay type: cell-based, human; settings: C4-2B cells, 200 ng/mL CXCL12, after first hour, constant for 12 hours
Method: αVβ3 Protein Stimulation and Verification. C4-2B cells were grown on glass coverslips in a six-well dish and then stimulated to express αVβ3 by treatment with 200 ng/mL of recombinant human CXCL12 (R&D Systems, Minneapolis, Minn.) for 1, 6, or 12 hours at 37° C. After cells were stimulated they were rinsed with PBS, fixed with 4% formaldehyde (Affymetrix) for 10 min at room temperature, washed twice with PBS, and blocked for 1 hour with 1% BSA in PBS. Next cells were incubated for 4 hours with a 1:100 dilution of anti-integrin αVβ3 antibody, clone LM609 (Millipore). Incubation was followed by three washes with PBS, and then incubated for 45 minutes with a 1:200 dilution of the goat anti-mouse IgG (H+L) secondary antibody, Alexa Fluor 488 conjugate (Life Technologies). Cells were washed twice more and mounted on slides with Prolong Gold antifade reagent with DAPI (Invitrogen). Fluorescent images were taken with Olympus AX70 Florescent Microscope.

[3] = In vivo bone retention (intraosseous injection); settings: injected into mouse tibia, live animal imaging up to 72 hours, NIR dye
Method: In vivo bone retention. […] Animals were imaged initially and at time points: 1 hour, 24 hours, 48 hours, and 72 hours to assess for NIR signal on IVIS animal imager. Fluorescent signal was quantified at each time and compared to the signal for the initial time point of each mouse to give the percentage of retained nanoparticle in the bone. Additionally, half-life of nanoparticle signal in the bone was calculated with the following equation: N(t)=N0(½)^(t/t1/2).

ATP-dependent drug efflux pump glycoprotein (P-gp), sequence (P08183 whole entry): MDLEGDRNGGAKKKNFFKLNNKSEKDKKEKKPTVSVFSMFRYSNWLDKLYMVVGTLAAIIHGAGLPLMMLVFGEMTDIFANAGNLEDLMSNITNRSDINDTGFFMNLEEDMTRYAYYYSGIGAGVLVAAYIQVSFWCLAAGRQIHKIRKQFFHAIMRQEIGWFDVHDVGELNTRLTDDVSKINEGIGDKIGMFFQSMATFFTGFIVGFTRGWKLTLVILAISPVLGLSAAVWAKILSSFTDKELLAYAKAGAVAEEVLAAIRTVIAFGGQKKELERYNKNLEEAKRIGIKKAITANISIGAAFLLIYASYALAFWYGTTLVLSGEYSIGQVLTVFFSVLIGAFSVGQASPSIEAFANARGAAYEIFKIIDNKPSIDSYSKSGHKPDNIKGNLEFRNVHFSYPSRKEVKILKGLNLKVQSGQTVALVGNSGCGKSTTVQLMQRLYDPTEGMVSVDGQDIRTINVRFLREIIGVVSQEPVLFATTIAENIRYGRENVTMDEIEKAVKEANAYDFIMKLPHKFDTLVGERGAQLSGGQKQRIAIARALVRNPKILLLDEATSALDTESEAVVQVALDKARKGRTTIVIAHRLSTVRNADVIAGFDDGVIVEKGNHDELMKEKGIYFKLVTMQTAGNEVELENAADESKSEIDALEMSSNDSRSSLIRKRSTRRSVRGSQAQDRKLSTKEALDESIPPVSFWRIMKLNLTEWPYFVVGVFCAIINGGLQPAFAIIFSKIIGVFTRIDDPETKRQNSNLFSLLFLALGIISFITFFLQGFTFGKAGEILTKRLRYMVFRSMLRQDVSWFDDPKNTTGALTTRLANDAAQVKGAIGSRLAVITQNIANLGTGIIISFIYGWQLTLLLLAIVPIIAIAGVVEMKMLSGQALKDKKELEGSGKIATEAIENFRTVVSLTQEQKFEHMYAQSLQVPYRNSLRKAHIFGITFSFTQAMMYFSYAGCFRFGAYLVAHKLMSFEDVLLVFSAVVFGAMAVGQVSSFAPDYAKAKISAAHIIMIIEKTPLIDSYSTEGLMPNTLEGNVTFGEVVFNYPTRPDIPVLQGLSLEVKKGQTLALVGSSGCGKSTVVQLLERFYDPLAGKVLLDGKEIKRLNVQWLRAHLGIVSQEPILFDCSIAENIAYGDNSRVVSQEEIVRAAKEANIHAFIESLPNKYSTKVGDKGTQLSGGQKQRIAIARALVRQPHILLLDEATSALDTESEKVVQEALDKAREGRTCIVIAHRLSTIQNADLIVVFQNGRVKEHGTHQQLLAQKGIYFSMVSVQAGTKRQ

CO[C@H]1C(=O)[C@]2(C)[C@@H](OC)C[C@H]3OC[C@@]3(OC(C)=O)[C@H]2[C@H](OC(=O)c2ccccc2)[C@]2(O)C[C@H](OC(=O)[C@H](O)[C@@H](NC(=O)OC(C)(C)C)c3ccccc3)C(C)=C1C2(C)C [Cabazitaxel]
substrate affinity for P-gp [1]: lower substrate affinity

C-X-C motif chemokine ligand 12 [CXCL12]
increase in expression level of αVβ3 [2]: approximately 2 fold

CCCN1C(=CC=C2CCCC(C=CC3=[N+](CCC)c4ccccc4C3(C)C)=C2Cl)C(C)(C)c2ccccc21.[I-] [dye, IR-780 dye]
retention and half-life in the bone [3]: equivalent regarding retention in the bone
